# ChEMBL document CHEMBL3600356, “Optimization of permethyl ningalin B analogs as P-glycoprotein inhibitors” (Bioorg Med Chem, 2015)
# Key:
# Homo sapiens = organism: Homo sapiens; assay: Modulation of p-glycoprotein in human MDA435/LCC6MDR cells assessed as ratio of IC50 for paclitaxel in absence of drug to IC50 for paclitaxel in presence of 1 uM of drug after 5 days by MTS assay; format: cell-based
# [1] = Cytotoxicity against human MDA435/LCC6MDR cells assessed as cell survival at 1 uM after 3 days by MTS/PMS assay; format: ADME, cell-based; settings: 72 h
# [2] = Cytotoxicity against human MDA435/LCC6 cells assessed as cell survival at 1 uM after 3 days by MTS/PMS assay; format: cell-based; settings: mda-435/lcc6, 72 h
# [3] = Solubility of the compound in phosphate buffer at pH 7.4 by capillary electrophoresis system; format: physicochemical
SMILES,Ratio IC50 (Homo sapiens),Activity [1],Activity [2],solubility [3] [µg/mL]
COc1ccc(C2=C(c3ccc(OC)c(OC)c3)C(=O)N(C(=O)N3CCN(CC(=O)c4ccc(S(C)(=O)=O)cc4)CC3)C2=O)cc1OC,1,Non-toxic,Non-toxic,
COc1ccc(C2=C(c3ccc(OC)c(OC)c3)C(=O)N(C(=O)c3ccc(OCc4ccccc4)c(OC)c3)C2=O)cc1OC,,Non-toxic,Non-toxic,0.405
CCCCC1OC(=O)c2cc(NC(=O)N3C(=O)C(c4ccc(OC)c(OC)c4)=C(c4ccc(OC)c(OC)c4)C3=O)ccc21 (stereo not drawn),2.4,Non-toxic,Non-toxic,
COc1ccc(C2=C(c3ccc(OC)c(OC)c3)C(=O)N(C(=O)N3CCN(CC(=O)c4ccc(OCc5ccccc5)c(OC)c4)CC3)C2=O)cc1OC,5.4,Non-toxic,Non-toxic,
COc1ccc(C2=C(c3ccc(OC)c(OC)c3)C(=O)N(CC(=O)c3cc(Br)c(OCc4ccccc4)cc3OCCO)C2=O)cc1OC,21.4,Non-toxic,Non-toxic,
COc1ccc(C2=C(c3ccc(OC)c(OC)c3)C(=O)N(C(=O)Nc3ccc4c(c3)C(=O)OC4)C2=O)cc1OC,1.1,Non-toxic,Non-toxic,
